One assay has as its system bacterial dipeptidases. The conditions noted are these: cited from earlier work.
The test system of another assay is P. aeruginosa GRP-0049. In kind it is cell-based. The conditions noted are these: geometric mean, broth microdilution, MDR carbapenem susceptible strain. The procedure:
(§1) The statistical significance of the difference in geometric means of MIC and MBC was determined with the Mann-Whitney U test.
(In broth dilution the organism is exposed to a series of concentrations in liquid medium.)

For another assay, the system named is P. aeruginosa GRP-0019. The assay is classed as cell-based. The conditions noted are these: geometric mean, broth microdilution, wild-type strain. How it is done: as §1
The test system of another assay is P. aeruginosa GRP-0036. In kind it is cell-based. The conditions noted are these: geometric mean, broth microdilution, MDR carbapenem resistant strain. The procedure:
as §1

For the next assay, the system named is P. aeruginosa ATCC 27853. The assay can be described thus: MIC/MBC by broth microdilution (CLSI). In kind it is cell-based, Pseudomonas aeruginosa. The conditions noted are these: geometric mean, wild-type reference strain. How it is done:
as §1

Another assay has as its system K. pneumoniae GRP-0107. The assay can be described thus: MIC/MBC by broth microdilution (CLSI). The conditions noted are these: geometric mean, wild-type strain. In kind it is cell-based, Klebsiella pneumoniae. How it is done: as §1

In brackets after ≈: the same amount, converted by molar mass.

In the case of `CC1(C)C[C@@H]1C(=O)N/C(=C\CCCCSC[C@H](N)C(=O)O)C(=O)O` [cilastatin], the “inhibition of bacterial dipeptidases” value with bacterial dipeptidases is “very inefficient inhibitor”.
For `C[C@@H](O)[C@H]1C(=O)N2C(C(=O)O)=C(SCCN=CN)C[C@H]12` [imipenem], the “MIC [range]” value in the assay on P. aeruginosa GRP-0049 is given as 1.2 mg/L (≈ 4.01 µM); in the assay on P. aeruginosa GRP-0019, 0.5 mg/L (≈ 1.67 µM); against P. aeruginosa GRP-0036, 8 mg/L (≈ 26.7 µM); in the assay with P. aeruginosa ATCC 27853, 1.0 mg/L (≈ 3.34 µM); against K. pneumoniae GRP-0107, 0.5 mg/L (≈ 1.67 µM).

The record behind these values is publication PMC6364906 (PLoS ONE, 2019).
